# Calls of active or inactive are those of the source. The rule behind the calls is not given here.
# Tests used:
# [1] = tested on: MCF7; test: Cytotoxicity against human MCF7 cells assessed as inhibition of cell proliferation incubated for 72 hrs by MTT assay; type: functional, cell-based; details: MCF7, 72 h
# [2] = tested on: A549; test: Cytotoxicity against human A549 cells assessed as inhibition of cell proliferation incubated for 72 hrs by MTT assay; type: functional, cell-based; details: A549, 72 h
# [3] = tested on: HCT-116; test: Cytotoxicity against human HCT-116 cells assessed as inhibition of cell proliferation incubated for 72 hrs by MTT assay; type: functional, cell-based; details: HCT-116, 72 h
# [4] = Cytotoxicity against human MRC5 cells assessed as inhibition of cell proliferation incubated for 72 hrs by MTT assay; type: toxicity, cell-based
# [5] = tested on: MCF7; test: Inhibition of colony formation in human MCF7 cells assessed as reduction in clonogenic capacity incubated for 24 hrs by crystal violet staining based analysis; type: functional, cell-based
# [6] = tested on: HCT-116; test: Inhibition of colony formation in human HCT-116 cells assessed as reduction in clonogenic capacity incubated for 24 hrs by crystal violet staining based analysis; type: functional, cell-based
# [7] = tested on: A549; test: Inhibition of colony formation in human A549 cells assessed as reduction in clonogenic capacity incubated for 24 hrs by crystal violet staining based analysis; type: functional, cell-based
# [8] = tested on: A549; test: Inhibition of cell adhesion in human A549 cells assessed as reduction in cell aggregates formation at IC50 incubated for 48 hrs by inverted phase contrast microscopic analysis; type: functional, cell-based
# [9] = tested on: HCT-116; test: Inhibition of cell adhesion in human HCT-116 cells assessed as reduction in cell aggregates formation at IC50 incubated for 48 hrs by inverted phase contrast microscopic analysis; type: functional, cell-based
# [10] = tested on: A549; test: Induction of cell cycle arrest in human A549 cells assessed as accumulation of cells at S phase at IC50 incubated for 24 hrs by PI staining based flow cytometric analysis (reference value: 39.41 +/- 2.54%); type: functional
# [11] = tested on: A549; test: Induction of cell cycle arrest in human A549 cells assessed as accumulation of cells at G1 phase at IC50 incubated for 48 hrs by PI staining based flow cytometric analysis (reference value: 53.5 +/- 4.01%); type: functional
# [12] = tested on: A549; test: Induction of cell cycle arrest in human A549 cells assessed as accumulation of cells at G2 phase at IC50 incubated for 48 hrs by PI staining based flow cytometric analysis (reference value: 38.15 +/- 1.80%); type: functional
# [13] = tested on: HCT-116; test: Induction of cell cycle arrest in human HCT-116 cells assessed as accumulation of cells at G1 phase at IC50 incubated for 24 hrs by PI staining based flow cytometric analysis relative to control; type: functional
# [14] = tested on: HCT-116; test: Induction of cell cycle arrest in human HCT-116 cells assessed as accumulation of cells at G2 phase at IC50 incubated for 24 hrs by PI staining based flow cytometric analysis relative to control; type: functional
# [15] = tested on: HCT-116; test: Induction of cell cycle arrest in human HCT-116 cells assessed as accumulation of cells at G1 phase at IC50 incubated for 48 hrs by PI staining based flow cytometric analysis relative to control; type: functional
# [16] = tested on: HCT-116; test: Induction of cell cycle arrest in human HCT-116 cells assessed as accumulation of cells at S phase at IC50 incubated for 48 hrs by PI staining based flow cytometric analysis; type: functional
# [17] = tested on: HCT-116; test: Induction of DNA damage in human HCT-116 cells assessed as gammaH2AX positive cells at IC50 incubated for 48 hrs by PI staining based flow cytometric analysis (reference value: 6.24 +/- 1.94%); type: functional
# [18] = tested on: Mitochondrial membrane; test: Induction of mitochondrial membrane depolarization in human A549 cells assessed as decrease in ratio of J-aggregates to J-monomer incubated for 24 hrs by JC-1 staining based flow cytometric analysis (reference value: 17.72 +/- 3.94%); type: cell membranes
# [19] = tested on: Mitochondrial membrane; test: Induction of mitochondrial membrane depolarization in human HCT-116 cells assessed as increase in mitochondrial fission by measuring appearance of shortened mitochondria by confocal microscopic analysis; type: cell membranes
# [20] = tested on: Mitochondrial membrane; test: Induction of mitochondrial membrane depolarization in human HCT-116 cells assessed as increase in mitochondrial fission by measuring appearance of spherical mitochondria by confocal microscopic analysis; type: cell membranes
# [21] = tested on: Mitochondrial membrane; test: Induction of mitochondrial membrane depolarization in human HCT-116 cells assessed as increase in mitochondrial fission by measuring appearance of circular mitochondria by confocal microscopic analysis; type: cell membranes
# [22] = tested on: Mitochondrial membrane; test: Disruption of mitochondrial membrane integrity in human HCT-116 cells assessed as change in mitochondrial size by TEM analysis; type: cell membranes
# [23] = tested on: Mitochondrial membrane; test: Disruption of mitochondrial membrane integrity in human HCT-116 cells assessed as change in mitochondrial shape by TEM analysis; type: cell membranes
# [24] = tested on: Mitochondrial membrane; test: Disruption of mitochondrial membrane integrity in human HCT-116 cells assessed as change in mitochondrial internal organization by TEM analysis; type: cell membranes
# [25] = tested on: Mitochondrial membrane; test: Disruption of mitochondrial membrane integrity in human HCT-116 cells assessed as mitochondrial swelling by TEM analysis; type: cell membranes
# [26] = tested on: Mitochondrial membrane; test: Disruption of mitochondrial membrane integrity in human HCT-116 cells assessed as disruption of normal mitochondrial distribution by TEM analysis; type: cell membranes
# [27] = tested on: Mitochondrial membrane; test: Disruption of mitochondrial membrane integrity in human HCT-116 cells assessed as organization of mtDNA nucleoids within cells by TEM analysis; type: cell membranes
# [28] = tested on: Mitochondrial membrane; test: Disruption of mitochondrial membrane integrity in human HCT-116 cells assessed as presence of large mitochondria by TEM analysis; type: cell membranes
# [29] = tested on: Mitochondrial membrane; test: Disruption of mitochondrial membrane integrity in human HCT-116 cells assessed as presence of bloated mitochondria by TEM analysis; type: cell membranes
# [30] = tested on: Mitochondrial membrane; test: Disruption of mitochondrial membrane integrity in human HCT-116 cells assessed as absence of well-developed cristae by TEM analysis; type: cell membranes
# [31] = tested on: A549; test: Induction of apoptosis in human A549 cells assessed as apoptotic rate at IC50 incubated for 24 hrs by Annexin-V and 7-AAD staining based flow cytometric analysis (reference value: 4.56 +/- 0.81%); type: functional
# [32] = tested on: A549; test: Induction of apoptosis in human A549 cells assessed as apoptotic rate at IC50 incubated for 48 hrs by Annexin-V and 7-AAD staining based flow cytometric analysis (reference value: 6.56 +/- 1.17%); type: functional
# [33] = tested on: HCT-116; test: Induction of apoptosis in human HCT-116 cells assessed as increase in apoptotic cells incubated for 24 hrs by Annexin-V and 7-AAD staining based flow cytometric analysis (reference value: 8.10 +/- 2.16%); type: functional
# [34] = tested on: HCT-116; test: Induction of apoptosis in human HCT-116 cells assessed as increase in apoptotic cells incubated for 48 hrs by Annexin-V and 7-AAD staining based flow cytometric analysis (reference value: 6.82 +/- 1.05%); type: functional
# [35] = Toxicity in chicken embryo chorioallantoic membrane at nanomolar concentration measured at day 6 by Kaplan Mayer survival analysis; type: tissue-based, Gallus gallus; details: in vivo
# [36] = Toxicity in chicken embryo chorioallantoic membrane assessed as survival rate at 1.5 uM measured at day 6 by Kaplan Mayer survival analysis relative to control; type: tissue-based, Gallus gallus
# [37] = Toxicity in chicken embryo chorioallantoic membrane assessed as survival rate at 4.5 uM measured at day 6 by Kaplan Mayer survival analysis relative to control; type: tissue-based, Gallus gallus
# [38] = tested on: A549; test: Induction of DNA damage in human A549 cells assessed as increase in gammaH2AX positive cells at IC50 incubated for 48 hrs by PI staining based flow cytometric analysis; type: functional, cell-based
# [39] = tested on: Mitochondrial membrane; test: Disruption of mitochondrial membrane potential in human HCT-116 cells assessed as translocation of cytochrome c to cytoplasm at IC50 incubated for 48 hrs by confocal microscopic analysis; type: cell membranes
# [40] = tested on: HL-60; test: Cytotoxicity against human HL-60 cells; type: functional, cell-based
structure (smiles),measurement,setting,value
CC(=S)NC1CCc2[nH]c3ccc(OC(F)(F)F)cc3c2C1 (stereo not drawn),IC50,[1],31 µM
same,IC50,[2],25.7 µM
same,IC50,[3],23.6 µM
same,IC50 at 72 h,[4],> 50 µM
same,inhibition,[5],Dose-Dependent Effect
same,inhibition,[6],Dose-Dependent Effect
same,inhibition,[7],Dose-Dependent Effect
same,inhibition,[8],Active
same,inhibition,[9],Active
same,Activity,[10],15.45%
same,Activity,[11],53.35%
same,Activity,[12],46.75%
same,Activity,[13],16.95%
same,Activity,[14],17.95%
same,Activity,[15],31.15%
same,Activity,[16],18.9%
same,Activity,[17],14.63%
same,Activity,[18],16.9
same,Activity,[19],Active
same,Activity,[20],Active
same,Activity,[21],Active
same,Activity,[22],Active
same,Activity,[23],Active
same,Activity,[24],Active
same,Activity,[25],Active
same,Activity,[26],Active
same,Activity,[27],Active
same,Activity,[28],Active
same,Activity,[29],Active
same,Activity,[30],Active
same,Activity,[31],16.64%
same,Activity,[32],27.97%
same,Activity,[33],17.5%
same,Activity,[34],45.03%
same,Activity,[35],Non-Toxic
same,survival at 1.5 µM,[36],70%
same,survival at 4.5 µM,[37],70%
same,Activity,[38],Active
same,Activity,[39],Active
CC(=O)Nc1ccc2[nH]c3c(c2c1)CC(NC(=O)c1cc2ccccc2[nH]1)CC3 (stereo not drawn),IC50,[1],> 50 µM
same,IC50,[2],> 50 µM
same,IC50,[3],> 50 µM
same,IC50 at 72 h,[4],> 50 µM
CC(=O)Nc1ccc2[nH]c3c(c2c1)CC(NC(=O)OC(C)(C)C)CC3 (stereo not drawn),IC50,[1],> 50 µM
same,IC50,[2],> 50 µM
same,IC50,[3],> 50 µM
same,IC50 at 72 h,[4],> 50 µM
CC[C@]12CCCN3C(=O)C(=O)O[C@@]31c1c([nH]c3ccccc13)CC2,IC50,[40],> 100 µM

# Reference: ChEMBL document CHEMBL6071148, “Synthesis and biological evaluation of novel 3,6- amide and thioamide substituted- 2,3,4,9-tetrahydro-1H-carbazoles for anti-cancer activity” (Eur J Med Chem, 2024)
